What was measured:
[1] = tested on: mouse SOD1 (mSOD1) mRNA; assay: Mouse SOD1 mRNA in spinal cord of human SOD1 (G93A) transgenic mice (PCR); assay type: in vivo; conditions: 60 mg/kg/day oral, 5 days a week for 4 weeks, vs solvent control; relative to β-actin (FIG. 4)
Protocol: (§1) To 8-week-old human SOD1 (G93A) transgenic mice (The Jackson Laboratory) were orally administered sorafenib (60 mg/kg/day) dissolved in 95% ethanol and Cremophol EL or solvent alone as a control, each to 3 mice, 5 days a week for 4 weeks. After administration, the spinal cord was removed. Total RNA was extracted and human and mouse SOD1 mRNA amounts were measured by PCR.

[2] = tested on: human SOD1 (hSOD1) mRNA; assay: Human SOD1 mRNA in spinal cord of human SOD1 (G93A) transgenic mice (PCR); assay type: in vivo, mouse; conditions: 60 mg/kg/day oral, 5 days a week for 4 weeks, vs solvent control; relative to β-actin (FIG. 4)
Protocol: as §1

[3] = tested on: SOD1; assay: Western blotting of intracellular SOD1 in iPS cell-derived astrocytes; assay type: cell-based, human; conditions: astrocytes from ALS patient iPS cells; 1 μM, 3 μM, 10 μM and 30 μM; 48 hours; β-actin internal standard (FIG. 3D)
Protocol: A 4-mm skin biopsy was cultured for 3 weeks, and the resulting cells in culture were used as the fibroblasts derived from an ALS patient.
Human cDNAs for KLF4, Sox2, Oct3/4 and c-Myc were transferred to the above-described fibroblasts using a retrovirus, as described by Takahashi K et al. in Cell 131(5), 861, 2007. On day 6 after the gene transfer, the fibroblasts were transferred onto SNL feeder cells. The following day, the medium was replaced with a primate ES cell culture broth supplemented with 4 ng/ml of bFGF (Wako). The medium was exchanged every two days; 30 days after the gene transfer, colonies were picked up.
Neurospheres were formed by a slightly modified version of the method described by Wada T et al. in PLoS ONE 4(8), e6722, 2009. […]
The iPS cell-derived astrocytes were seeded to a 6-well plate at a density of 250,000 cells/well. […] After the incubation, the amount expressed was detected by ECL (Enhanced ChemiLuminescence) using an HRP-linked anti-rabbit IgG antibody (1:5000; GE healthcare) and an HRP-linked anti-mouse IgG antibody (1:5000; GE healthcare).

Compound: CNC(=O)c1cc(Oc2ccc(NC(=O)Nc3ccc(Cl)c(C(F)(F)F)c3)cc2)ccn1 [sorafenib]
- mouse SOD1 mRNA amount in spinal cord [1]: significantly decreased
- human SOD1 mRNA amount in spinal cord [2]: significantly decreased
- expression of SOD1 (western blotting) [3]: a reduction in the expression of SOD1 was observed

— patent publication US9856210B2, “Pharmaceutical composition for prevention and treatment of amyotrophic lateral sclerosis” (Kyoto University, priority 2010, dated 2018)
